The numbers were not newly measured in US20260144769A1, “4-PHENYLBUTYRATE RESTORED GABA UPTAKE AND REDUCED SEIZURES IN SLC6A1 VARIANT-MEDIATED DISORDERS” (Vanderbilt University, priority 2022, published 2026), which cites them from elsewhere.

For the series the following is noted: SLC6A1 mutation mediated disorders; cited from earlier work.

As to `CCCC(CCC)C(=O)O` [Valproic acid], the cognition result was “could not improve cognition” and the seizure control entry was “control seizures”.
